Data published in publication PMC6152983, “An amine oxidase gene from mud crab, Scylla paramamosain, regulates the neurotransmitters serotonin and dopamine in vitro” (PLoS ONE, 2018).

Target: T1, SpAMO (Scylla paramamosain, UniProt A0A3G2KVP6)
T1 sequence (A0A3G2KVP6 2-506): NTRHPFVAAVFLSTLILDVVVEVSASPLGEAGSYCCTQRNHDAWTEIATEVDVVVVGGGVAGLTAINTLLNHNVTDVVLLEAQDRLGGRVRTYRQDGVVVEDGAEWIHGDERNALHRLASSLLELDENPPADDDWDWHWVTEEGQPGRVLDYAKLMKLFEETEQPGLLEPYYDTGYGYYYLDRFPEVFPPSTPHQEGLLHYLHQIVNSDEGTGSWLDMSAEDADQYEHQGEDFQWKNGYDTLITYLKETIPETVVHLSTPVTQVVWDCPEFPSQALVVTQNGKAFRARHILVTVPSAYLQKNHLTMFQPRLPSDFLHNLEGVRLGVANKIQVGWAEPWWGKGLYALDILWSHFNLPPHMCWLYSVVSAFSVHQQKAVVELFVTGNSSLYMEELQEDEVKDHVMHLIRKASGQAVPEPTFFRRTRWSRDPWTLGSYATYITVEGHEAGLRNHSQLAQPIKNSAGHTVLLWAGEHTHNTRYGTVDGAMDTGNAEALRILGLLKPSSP
Experiment: luminol/horseradish peroxidase chemiluminescence of H2O2
Type: biochemical
Details: glycine buffer pH 8.0, 37 °C; 50 μL of 1.5 mmol/L substrate

## NCCc1ccc(O)c(O)c1 [dopamine]
  luminol/horseradish peroxidase chemiluminescence of H2O2: oxidative deamination of 5-HT and DA by SpAMO was significantly stronger
